Assay results from patent publication US20130274174A1, “THERAPEUTIC COMBINATION OF DAPTOMYCIN AND PROTEIN SYNTHESIS INHIBITOR ANTIBIOTIC, AND METHODS OF USE” (priority 2011, published 2013).
Values after ≈ are worked out from the molar mass of the structure shown. Like-named read-outs stand apart in the source and are kept apart here.

System: S. aureus MW2 (NRS123)
Test: microbe, parasite or virus in culture
Type: cell-based, Staphylococcus aureus
Conditions: Staphylococcus aureus
Method: S. aureus strains MW2 (NARSA collection clinical MRSA isolate, NRS123) and ATCC 33591 (MRSA strain from the American Type Culture Collection) were cultured on Mueller-Hinton II cation adjusted (MHA) medium in 90×90 mm square petri dishes. MHA containing ¼ of the MIC value of TR-700, TR-705, LZD, TIA, CLI, TET, or VAN, TMP/SMX throughout the plate and a continuous linear gradient of DAP across the plate was used to passage MW2. ATCC 33591 was passaged with ¼ of the MIC of a subset of these drugs (TR-700, TMP/SMX, and VAN). A DAP-only control passage group was included for both strains. DAP gradients were created by pouring two layers of media as previously described (Bryson, V., et al. 1952. Microbial selection. Science 116:45-51; Locke, J. B., et al., 2009. Antimicrob. Agents Chemother. 53:5265-5274). Following each passage the leading edge of growth (i.e., most resistant cells) was resuspended in phosphate buffered saline (PBS) to an absorbance of 0.30 OD600 and a 100 μl aliquot containing ˜3.0×10^7 CFU (colony-forming units) was spread on to the proceeding passage plate. The starting maximal DAP concentration was 2 μg/ml and was increased in two-fold increments when the leading edge of growth surpassed the half way point on the plate. A glycerol stock was made from the total cell population for each culture condition for each passage. Thirty serial passages were completed for each treatment group.

[1] = NRS123, passage 5, selection group DAP
[2] = NRS123, passage 5, selection group DAP + CLI
[3] = NRS123, passage 5, selection group DAP + LZD
[4] = NRS123, passage 5, selection group DAP + TET
[5] = NRS123, passage 5, selection group DAP + TIA
[6] = NRS123, passage 5, selection group DAP + TMP/SMX
[7] = NRS123, passage 5, selection group DAP + TR-700
[8] = NRS123, passage 5, selection group DAP + TR-705
[9] = NRS123, passage 5, selection group DAP + VAN
[10] = NRS123, passage 10, selection group DAP
[11] = NRS123, passage 10, selection group DAP + CLI
[12] = NRS123, passage 10, selection group DAP + LZD
[13] = NRS123, passage 10, selection group DAP + TET
[14] = NRS123, passage 10, selection group DAP + TIA
[15] = NRS123, passage 10, selection group DAP + TMP/SMX
[16] = NRS123, passage 10, selection group DAP + TR-700
[17] = NRS123, passage 10, selection group DAP + TR-705
[18] = NRS123, passage 10, selection group DAP + VAN
[19] = NRS123, passage 15, selection group DAP
[20] = NRS123, passage 15, selection group DAP + CLI
[21] = NRS123, passage 15, selection group DAP + LZD
[22] = NRS123, passage 15, selection group DAP + TET
[23] = NRS123, passage 15, selection group DAP + TIA
[24] = NRS123, passage 15, selection group DAP + TMP/SMX
[25] = NRS123, passage 15, selection group DAP + TR-700
[26] = NRS123, passage 15, selection group DAP + TR-705
[27] = NRS123, passage 15, selection group DAP + VAN
[28] = NRS123, passage 20, selection group DAP
[29] = NRS123, passage 20, selection group DAP + CLI
[30] = NRS123, passage 20, selection group DAP + LZD
[31] = NRS123, passage 20, selection group DAP + TET
[32] = NRS123, passage 20, selection group DAP + TIA
[33] = NRS123, passage 20, selection group DAP + TMP/SMX
[34] = NRS123, passage 20, selection group DAP + TR-700
[35] = NRS123, passage 20, selection group DAP + TR-705
[36] = NRS123, passage 20, selection group DAP + VAN
[37] = NRS123, passage 25, selection group DAP
[38] = NRS123, passage 25, selection group DAP + CLI
[39] = NRS123, passage 25, selection group DAP + LZD
[40] = NRS123, passage 25, selection group DAP + TET
[41] = NRS123, passage 25, selection group DAP + TIA
[42] = NRS123, passage 25, selection group DAP + TMP/SMX
[43] = NRS123, passage 25, selection group DAP + TR-700
[44] = NRS123, passage 25, selection group DAP + TR-705
[45] = NRS123, passage 25, selection group DAP + VAN
[46] = NRS123, passage 30, selection group DAP
[47] = NRS123, passage 30, selection group DAP + CLI
[48] = NRS123, passage 30, selection group DAP + LZD
[49] = NRS123, passage 30, selection group DAP + TET
[50] = NRS123, passage 30, selection group DAP + TIA
[51] = NRS123, passage 30, selection group DAP + TMP/SMX
[52] = NRS123, passage 30, selection group DAP + TR-700
[53] = NRS123, passage 30, selection group DAP + TR-705
[54] = NRS123, passage 30, selection group DAP + VAN
[55] = NRS123, read-out: DAP MIC by the end of the experiment (selection of DAP^ns strains), MW2, passaged with DAP alone or with co-selecting agent at ¼ MIC, CLSI breakpoint

## CCC[C@@H]1C[C@@H](C(=O)N[C@@H]([C@H]2O[C@H](SC)[C@H](O)[C@@H](O)[C@H]2O)[C@H](C)Cl)N(C)C1 [CLI, clindamycin]
NRS123, passage 0, NRS123 WT
  MIC: 0.125 µg/mL (≈ 0.294 µM)
[1]
  MIC: 0.125 µg/mL (≈ 0.294 µM)
[2]
  MIC: 0.0625 µg/mL
[3]
  MIC: 0.0625 µg/mL
[4]
  MIC: 0.125 µg/mL
[5]
  MIC: 0.125 µg/mL
[6]
  MIC: 0.125 µg/mL
[7]
  MIC: 0.125 µg/mL
[8]
  MIC: 0.0625 µg/mL
[9]
  MIC: 0.125 µg/mL
[10]
  MIC: 0.125 µg/mL (≈ 0.294 µM)
[11]
  MIC: 0.0625 µg/mL
[12]
  MIC: 0.0625 µg/mL
[13]
  MIC: 0.0625 µg/mL
[14]
  MIC: 0.125 µg/mL
[15]
  MIC: 0.125 µg/mL
[16]
  MIC: 0.125 µg/mL
[17]
  MIC: 0.125 µg/mL
[18]
  MIC: 0.0625 µg/mL
[19]
  MIC: 0.125 µg/mL (≈ 0.294 µM)
[20]
  MIC: 0.0625 µg/mL
[21]
  MIC: 0.125 µg/mL
[22]
  MIC: 0.0313 µg/mL
[23]
  MIC: 0.0625 µg/mL
[24]
  MIC: 0.125 µg/mL
[25]
  MIC: 0.125 µg/mL
[26]
  MIC: 0.0625 µg/mL
[27]
  MIC: 0.125 µg/mL
[28]
  MIC: 0.0625 µg/mL (≈ 0.147 µM)
[29]
  MIC: 0.0625 µg/mL
[30]
  MIC: 0.125 µg/mL
[31]
  MIC: 0.0313 µg/mL
[32]
  MIC: 0.0625 µg/mL
[33]
  MIC: 0.125 µg/mL
[34]
  MIC: 0.125 µg/mL
[35]
  MIC: 0.0625 µg/mL
[36]
  MIC: 0.125 µg/mL
[37]
  MIC: 0.125 µg/mL (≈ 0.294 µM)
[38]
  MIC: 0.0625 µg/mL
[39]
  MIC: 0.0625 µg/mL
[40]
  MIC: 0.0313 µg/mL
[41]
  MIC: 0.0625 µg/mL
[42]
  MIC: 0.125 µg/mL
[43]
  MIC: 0.125 µg/mL
[44]
  MIC: 0.0625 µg/mL
[45]
  MIC: 0.125 µg/mL
[46]
  MIC: 0.125 µg/mL (≈ 0.294 µM)
[47]
  MIC: 0.0625 µg/mL
[48]
  MIC: 0.0625 µg/mL
[49]
  MIC: 0.0313 µg/mL
[50]
  MIC: 0.125 µg/mL
[51]
  MIC: 0.125 µg/mL
[52]
  MIC: 0.125 µg/mL
[53]
  MIC: 0.125 µg/mL
[54]
  MIC: 0.0625 µg/mL
[55]
  MIC: > 1 µg/mL

## CN(C)[C@@H]1C(O)=C(C(N)=O)C(=O)[C@@]2(O)C(O)=C3C(=O)c4c(O)cccc4[C@@](C)(O)[C@H]3C[C@@H]12 [TET, tetracycline]
NRS123, passage 0, NRS123 WT
  MIC: 0.5 µg/mL (≈ 1.13 µM)
[1]
  MIC: 0.25 µg/mL (≈ 0.563 µM)
[2]
  MIC: 0.5 µg/mL
[3]
  MIC: 0.5 µg/mL
[4]
  MIC: 0.25 µg/mL
[5]
  MIC: 0.5 µg/mL
[6]
  MIC: 0.125 µg/mL
[7]
  MIC: 0.5 µg/mL
[8]
  MIC: 0.5 µg/mL
[9]
  MIC: 0.25 µg/mL
[10]
  MIC: 0.125 µg/mL (≈ 0.281 µM)
[11]
  MIC: 0.5 µg/mL
[12]
  MIC: 0.25 µg/mL
[13]
  MIC: 0.5 µg/mL
[14]
  MIC: 0.25 µg/mL
[15]
  MIC: 0.5 µg/mL
[16]
  MIC: 0.5 µg/mL
[17]
  MIC: 0.125 µg/mL
[18]
  MIC: 0.25 µg/mL
[19]
  MIC: 0.25 µg/mL (≈ 0.563 µM)
[20]
  MIC: 0.125 µg/mL
[21]
  MIC: 0.25 µg/mL
[22]
  MIC: 0.5 µg/mL
[23]
  MIC: 0.25 µg/mL
[24]
  MIC: 0.25 µg/mL
[25]
  MIC: 0.25 µg/mL
[26]
  MIC: 0.25 µg/mL
[27]
  MIC: 0.25 µg/mL
[28]
  MIC: 0.125 µg/mL (≈ 0.281 µM)
[29]
  MIC: 0.125 µg/mL
[30]
  MIC: 0.25 µg/mL
[31]
  MIC: 0.25 µg/mL
[32]
  MIC: 0.25 µg/mL
[33]
  MIC: 0.25 µg/mL
[34]
  MIC: 0.25 µg/mL
[35]
  MIC: 0.125 µg/mL
[36]
  MIC: 0.25 µg/mL
[37]
  MIC: 0.125 µg/mL (≈ 0.281 µM)
[38]
  MIC: 0.125 µg/mL
[39]
  MIC: 0.25 µg/mL
[40]
  MIC: 0.25 µg/mL
[41]
  MIC: 0.25 µg/mL
[42]
  MIC: 0.25 µg/mL
[43]
  MIC: 0.25 µg/mL
[44]
  MIC: 0.125 µg/mL
[45]
  MIC: 0.25 µg/mL
[46]
  MIC: 0.25 µg/mL (≈ 0.563 µM)
[47]
  MIC: 0.25 µg/mL
[48]
  MIC: 0.25 µg/mL
[49]
  MIC: 0.5 µg/mL
[50]
  MIC: 0.5 µg/mL
[51]
  MIC: 0.5 µg/mL
[52]
  MIC: 0.5 µg/mL
[53]
  MIC: 0.25 µg/mL
[54]
  MIC: 0.5 µg/mL
[55]
  MIC: > 1 µg/mL
